In BindingDB's records for doi:10.7270/Q2N301S8 (D3R/Abbott, 2020):

These compounds were tested against Beta-secretase 1 (Homo sapiens, UniProt P56817) (assay: D3R2027).
From the text: D3R2027

Beta-secretase 1, sequence (P56817 whole entry): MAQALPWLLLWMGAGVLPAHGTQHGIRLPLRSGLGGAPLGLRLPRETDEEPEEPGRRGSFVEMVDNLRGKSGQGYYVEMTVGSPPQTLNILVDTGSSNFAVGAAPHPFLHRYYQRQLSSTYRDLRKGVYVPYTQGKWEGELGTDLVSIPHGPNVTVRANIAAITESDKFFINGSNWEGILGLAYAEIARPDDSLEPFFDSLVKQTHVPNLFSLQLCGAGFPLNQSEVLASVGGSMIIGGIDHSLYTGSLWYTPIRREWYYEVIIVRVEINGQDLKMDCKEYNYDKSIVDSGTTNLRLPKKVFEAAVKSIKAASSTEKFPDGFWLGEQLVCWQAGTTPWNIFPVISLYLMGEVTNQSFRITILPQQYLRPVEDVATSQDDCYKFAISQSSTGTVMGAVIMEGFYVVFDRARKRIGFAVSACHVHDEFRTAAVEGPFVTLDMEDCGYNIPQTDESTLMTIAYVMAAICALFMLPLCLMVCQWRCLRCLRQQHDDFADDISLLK

Compound	IC50
Cc1cc2cc(n1)OCc1ccccc1COc1cccc(c1)C[C@@H]([C@H](O)CNC1(c3cccc(C(C)C)c3)CC1)NC2=O [BACE_112]	1400 nM
Cc1cc2cc(c1)OCCCCNc1cc(cc(Cl)n1)C(=O)N[C@H]([C@H](O)CNCc1cccc(C(C)C)c1)C2 [BACE_105]	68 nM
COc1cc2cc(n1)N(C)CCCCc1cccc(c1)C[C@@H]([C@H](O)CNCc1cccc(C(C)C)c1)NC2=O [BACE_99]	89 nM
Cc1cc2cc(n1)OCCCOCC[C@@H](C)C[C@@H]([C@H](O)CNCc1cccc(C(C)C)c1)NC2=O [BACE_54]	1700 nM
CC(C)(NC[C@@H](O)[C@@H]1Cc2cccc(c2)CCCCNc2cc(c[n+](Cc3ccccc3)c2)C(=O)N1)c1cccc(Br)c1 [BACE_121]	3600 nM
COc1cc2cc(n1)NCCCCCCC[C@@H](C)C[C@@H]([C@H](O)CNCc1cccc(C(C)C)c1)NC2=O [BACE_43]	14 nM
C[C@@H]1CCCCCCCCC(=O)N(C)[C@@H](C)C(=O)N[C@H]([C@H](O)CN[C@@H](C)c2cc(CC(C)(C)C)on2)C1 [BACE_30]	1 nM
CC(C)(C)c1ccnc(C2(NC[C@@H](O)[C@@H]3Cc4cccc(c4)CCCCNc4cc(cc(-c5ncco5)c4)C(=O)N3)CC2)c1 [BACE_119]	1.5 nM
COc1cc2cc(c1)C1=N[C@@H](C[C@H](C)CCCCCCCN2)[C@H](CO)O1 [BACE_142]	4500 nM
COc1cc2cc(n1)NCCCCc1cccc(c1)C[C@@H]([C@H](O)CNCc1cccc(C(C)C)c1)NC2=O [BACE_12]	7.8 nM
CC(=O)N1CCCCOc2cccc(c2)C[C@@H]([C@H](O)CNCc2cc(C(C)C)ccn2)NC(=O)c2cc(C)nc1c2 [BACE_101]	5500 nM
CCc1cc(CNC[C@@H](O)[C@@H]2Cc3cccc(c3)OCCCCOc3cc(cc(C(=O)N(C)C)c3)C(=O)N2)ncn1 [BACE_141]	1700 nM
Cc1cc2cc(n1)OCCCCc1cccc(c1)C[C@@H]([C@H](O)CNC(C)(C)c1cccc(C(C)C)c1)NC2=O [BACE_106]	150 nM
CC(C)c1cccc(C(C)(C)NC[C@@H](O)[C@@H]2Cc3cccc(c3)OCCCCNc3cncc(c3)C(=O)N2)c1 [BACE_114]	57 nM
CC(C)c1ccnc(CNC[C@@H](O)[C@@H]2Cc3cccc(c3)OCCCCOc3cccc(c3)C(=O)N2C)c1 [BACE_139]	37000 nM
C[C@@H]1CCCCCCCCC(=O)N(C)[C@@H](C)C(=O)N[C@H]([C@H](O)CNCc2cc(CC(C)(C)C)on2)C1 [BACE_29]	3.5 nM
CCCCNC(=O)[C@H](C)C[C@H](O)[C@@H]1C[C@H](C)CCCCC[C@H](C)CCC(=O)N(C)[C@@H](C)C(=O)N1 [BACE_148]	41 nM
CCCCNC(=O)[C@H](C)C[C@H](O)[C@@H]1Cc2ccc(O)c(c2)Cc2ccccc2OCC(=O)N[C@@H](C)C(=O)N1 [BACE_157]	120 nM
CC(C)c1cccc(CNC[C@@H](O)[C@@H]2Cc3cccc(c3)CCCCN(C)c3cccc(c3)C(=O)N2)c1 [BACE_118]	1000 nM
COCc1cc2cc(c1)C(=O)N[C@H]([C@H](O)CNCc1cc(OC)cc(OC)c1)C[C@H](C)CCCCCCCN2 [BACE_61]	1500 nM
CCCCNC(=O)[C@H](C)C[C@H](O)[C@H](Cc1ccccc1)NC(=O)c1cc(NCCCC)nc(OC)c1 [BACE_20]	770 nM
CCCCNC(=O)[C@H](C)C[C@H](O)[C@@H]1Cc2ccc(O)c(c2)Cc2ccccc2OCCCCC(=O)N1 [BACE_158]	4000 nM
CC(C)c1cccc(CNC[C@@H](O)[C@@H]2C[C@H](C)CCCCCCCCc3cc(ccn3)C(=O)N2)c1 [BACE_53]	10000 nM
COCc1cc2cc(c1)C(=O)N[C@H]([C@H](O)CNC(C)(C)c1cc(CC(C)(C)C)on1)Cc1cccc(c1)OCCCCN2 [BACE_117]	6.5 nM

Compound	IC50
C[C@@H]1CCCCCCCCC(=O)N(C)[C@@H](C)C(=O)N[C@H]([C@H](O)CO)C1 [BACE_143]	61000 nM
CCCCNC(=O)[C@H](C)C[C@H](O)[C@@H]1C[C@H](C)CCCCCCC[C@H](NC(=O)OC(C)(C)C)C(=O)N[C@@H](C)C(=O)N1 [BACE_149]	3 nM
C[C@@H]1CCCCCCOCC(=O)N(C)[C@@H](C)C(=O)N[C@H]([C@H](O)CNCc2cncc(Br)c2)C1 [BACE_35]	510 nM
CCCCNC(=O)[C@H](C)C[C@H](O)[C@@H]1Cc2cccc(c2)CCCCNc2cc(cc(C)n2)C(=O)N1 [BACE_155]	240 nM
CC(=O)COc1cc2cc(c1)C(=O)N[C@H]([C@H](O)CNCc1cccc(C(C)C)c1)Cc1cccc(c1)OCCCCO2 [BACE_16]	34 nM
C[C@@H]1CCCCCCCNc2cccc(c2)C(=O)N[C@H]([C@H](O)CNC(C)(C)c2cc(CC(C)(C)C)on2)C1 [BACE_57]	23 nM
C[C@@H]1CCCCCCCCC(=O)N(C)[C@@H](C)C(=O)N[C@H]([C@H](O)CNC(C)(C)c2nnc(CC(C)(C)C)s2)C1 [BACE_31]	240 nM
CC(C)c1cccc(C(C)(C)NC[C@@H](O)[C@@H]2Cc3cccc(c3)CCCCNc3cccc(c3)C(=O)N2)c1 [BACE_115]	290 nM
CC(C)c1cccc(CNC[C@@H](O)[C@@H]2C[C@H](C)CCCCCCCN(C)c3cc(ccn3)C(=O)N2)c1 [BACE_42]	740 nM
CC(C)c1cccc(CNC[C@@H](O)[C@@H]2C[C@H](C)CCOCCCCNc3cc(cc(Cl)n3)C(=O)N2)c1 [BACE_8]	31 nM
CC(C)Oc1ccc(C2CC2)cc1CNC[C@@H](O)[C@@H]1C[C@H](C)CCCCCCOCC(=O)N(C)[C@@H](C)C(=O)N1 [BACE_36]	1500 nM
C[C@@H]1CC(=O)NCCCCOc2cccc(c2)C[C@@H]([C@H](O)CNCc2cccc(C(C)(C)C)c2)NC1=O [BACE_92]	69 nM
C[C@@H]1CS(=O)(=O)CCCCOc2cccc(c2)C[C@@H]([C@H](O)CNC2(c3cccc(Br)c3)CC2)NC1=O [BACE_95]	68 nM
C[C@@H]1CCCCCCCCC(=O)N(C)[C@@H](C)C(=O)N[C@H]([C@H](O)CN[C@@H](C)c2cccc(Br)c2)C1 [BACE_22]	55 nM
CCOc1cc(CNC[C@@H](O)[C@@H]2C[C@H](C)CCOCCCCNc3cccc(c3)C(=O)N2)cc(C(F)(F)F)c1 [BACE_73]	6300 nM
C[C@@H]1CCCCCCCNc2cc(cc(-c3ncco3)c2)C(=O)N[C@H]([C@H](O)CNC2(c3cc(C(C)(C)C)ccn3)CC2)C1 [BACE_59]	1.7 nM
CC(C)c1cccc(C(C)(C)NC[C@@H](O)[C@@H]2Cc3cccc(c3)OCCCCNc3cccc(n3)C(=O)N2)c1 [BACE_122]	2300 nM
CC(C)Cc1cncc(C(C)(C)NC[C@@H](O)[C@@H]2C[C@H](C)CCCCCCCCC(=O)N(C)[C@@H](C)C(=O)N2)c1 [BACE_26]	270 nM
Cc1cc2cc(n1)OCCCCOc1cccc(c1)C[C@@H]([C@H](O)CN[C@H]1CC(C)(C)Oc3ccc(C(C)C)cc31)NC2=O [BACE_111]	3 nM
Cc1cc2cc(n1)CCCCCc1cccc(c1)C[C@@H]([C@H](O)CNCc1cccc(C(C)C)c1)NC2=O [BACE_113]	1600 nM
CC(C)c1ccc2c(c1)[C@@H](NC[C@@H](O)[C@@H]1Cc3cccc(c3)OCCCCCC(=O)N(C)[C@@H](C)C(=O)N1)CC(C)(C)O2 [BACE_91]	2 nM
Cc1cc2cc(n1)NN(C(=O)c1ccc(F)cc1)CCCCCC[C@@H](C)C[C@@H]([C@H](O)CNCc1cccc(C(C)C)c1)NC2=O [BACE_50]	46 nM
C[C@@H]1CCCCCCCCC(=O)N(C)[C@@H](C)C(=O)N[C@H]([C@H](O)CNC2(c3cc(C(C)(C)C)ccn3)CC2)C1 [BACE_23]	2 nM
CCCCNC(=O)[C@H](C)C[C@H](O)[C@@H]1Cc2cccc(c2)OCCCCCC(=O)N[C@@H](C)C(=O)N1 [BACE_153]	690 nM
